# In patent US11377425B1, “Small molecule modulators of IL-17” (LEO Pharma A/S, priority 2018, dated 2022):
# Biological target: T1, human IL-17AA (Homo sapiens, UniProt Q16552)
# T1 construct: host or cells: HEK (human embryonic kidney) cells
# T1 sequence (Q16552 24-155): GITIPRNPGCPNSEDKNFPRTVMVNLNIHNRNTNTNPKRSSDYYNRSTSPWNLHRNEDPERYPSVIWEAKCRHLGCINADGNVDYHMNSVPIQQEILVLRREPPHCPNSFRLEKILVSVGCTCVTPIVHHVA
# Test: IL-8 release assay in human epithelial keratinocytes adult (HEKa)
# Format: cell-based
# Conditions: HEKa cells, 3 ng/mL HEK-human IL-17AA + 10 ng/mL human TNFalpha; read-out: Rel EC50 IL-8 release assay
# Procedure, shortened: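 IL-8 release, quantified by HTRF and normalized to controls, reports IL-17 signaling in HEKa cells treated with compound plus final 3 ng/mL IL-17AA (HEK-derived) and 10 ng/mL TNF-alpha for 68-72 h; TNF-alpha-only wells set 100% inhibition. Four-parameter logistic fits (r^2>0.9) give relative IC50 and Emax; PrestoBlue flags cytotoxicity.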
row,EC50,SMILES
1,> 1000 nM,"Cc1n[nH]c(C)c1-c1ccc(NC(=O)[C@@H](NC(=O)N2CCCC2C(C)C)C2CCCCC2)cc1 (stereo partly drawn) [Example 475, N-[(1S)-1-cyclohexyl-2-[4-(3,5-dimethyl-1H-pyrazol-4-yl)anilino]-2-oxo-ethyl]-2-isopropyl-pyrrolidine-1-carboxamide]"
2,> 1000 nM,"Cc1n[nH]c(C)c1-c1ccc(NC(=O)[C@@H](NC(=O)N2CCCC2C(C)(C)O)C2CCCCC2)cc1 (single isomer, unassigned) [Example 464]"
3,< 100 nM,"CCn1nccc1C(=O)N[C@H](C(=O)Nc1ccc(-c2c(C)n[nH]c2C)c(O)c1)C(C1CC1)C1CC1 [Example 413, N-[(1S)-1-(dicyclopropylmethyl)-2-[4-(3,5-dimethyl-1H-pyrazol-4-yl)-3-hydroxy-anilino]-2-oxo-ethyl]-2-ethyl-pyrazole-3-carboxamide]"
4,> 1000 nM,"Cc1n[nH]c(C)c1-c1ccc(NC(=O)[C@@H](NC(=O)N2CCCC2C(C)(C)O)C2CCCCC2)cc1 (single isomer, unassigned) [Example 465]"
5,< 100 nM,"Cc1n[nH]c(CO)c1-c1ccc(NC(=O)[C@@H](NC(=O)c2ccnn2C(C)C)C(C2CC2)C2CC2)cc1 [Example 432, N-[(1S)-1-(Dicyclopropylmethyl)-2-[4-[5-(hydroxymethyl)-3-methyl-1H-pyrazol-4-yl]anilino]-2-oxo-ethyl]-2-isopropyl-pyrazole-3-carboxamide]"
6,< 100 nM,"CCCn1nccc1C(=O)N[C@H](C(=O)Nc1ccc(-c2c(C3CC3)n[nH]c2C)cc1)C(C1CC1)C1CC1 [Example 391, N-[(1S)-2,2-dicyclopropyl-1-[[4-(3-cyclopropyl-5-methyl-1H-pyrazol-4-yl)phenyl]carbamoyl]ethyl]-2-propyl-pyrazole-3-carboxamide]"
7,> 1000 nM,"Cn1cncc1-c1ccc(NC(=O)C(NC(=O)c2ccnn2C)C(c2cccc(F)c2)c2cccc(F)c2)cc1 (single isomer, unassigned) [Example 374B, N-(1,1-Bis(3-Fluorophenyl)-3-((4-(1-methyl-1H-imidazol-5-yl)phenyl)amino)-3-oxopropan-2-yl)-1-methyl-1H-pyrazole-5-carboxamide]"
8,100 to 1000 nM,"Cc1n[nH]c(C(C)O)c1-c1ccc(NC(=O)[C@@H](NC(=O)c2ccnn2C)C2CCCCC2)cc1 (stereo partly drawn) [Example 440, N-[(1S)-1-Cyclohexyl-2-[4-[5-(1-hydroxyethyl)-3-methyl-1H-pyrazol-4-yl]anilino]-2-oxo-ethyl]-2-methyl-pyrazole-3-carboxamide]"
9,100 to 1000 nM,"Cc1cnn(C)c1-c1ccc(NC(=O)[C@@H](NC(=O)c2ccnn2C(C)CO)C(C2CC2)C2CC2)cc1O (stereo partly drawn) [Example 366, N-[(1S)-1-(dicyclopropylmethyl)-2-[4-(2,4-dimethylpyrazol-3-yl)-3-hydroxy-anilino]-2-oxo-ethyl]-2-(2-hydroxy-1-methyl-ethyl)pyrazole-3-carboxamide]"
10,< 100 nM,"CCc1n[nH]c(CC)c1-c1ccc(NC(=O)[C@@H](NC(=O)c2ccnn2C)C(C2CC2)C2CC2)cc1 [Example 398, N-[(1S)-1-(dicyclopropylmethyl)-2-[4-(3,5-diethyl-1H-pyrazol-4-yl)anilino]-2-oxo-ethyl]-2-methyl-pyrazole-3-carboxamide]"
11,< 100 nM,"Cc1noc(C)c1-c1ccc(NC(=O)[C@@H](NC(=O)c2ccnn2C(C)C)C(C2CC2)C2CC2)cc1 [Example 360, N-[(1S)-1-(dicyclopropylmethyl)-2-[4-(3,5-dimethylisoxazol-4-yl)anilino]-2-oxo-ethyl]-2-isopropyl-pyrazole-3-carboxamide]"
12,> 1000 nM,"Cc1n[nH]c(C)c1-c1ccc(NC(=O)[C@@H](NC(=O)N2CCCC2)C2CCCCC2)cc1 [Example 477, N-[(1S)-1-cyclohexyl-2-[4-(3,5-dimethyl-1H-pyrazol-4-yl)anilino]-2-oxo-ethyl]pyrrolidine-1-carboxamide]"

# Continued, compound first:
row,SMILES,EC50
1,"Cc1n[nH]c(C)c1-c1ccc(NC(=O)C(NC(=O)c2ccnn2C)[C@@H](C)c2ccccc2)cc1 (single isomer, unassigned) [Example 234]",100 to 1000 nM
2,"Cc1n[nH]c(C)c1-c1ccc(NC(=O)[C@@H](NC(=O)c2ccnn2C)[C@@H]2CCCC3(CC3)C2)cc1 [Example 241, N-[(1S)-2-[4-(3,5-dimethyl-1H-pyrazol-4-yl)anilino]-2-oxo-1-[(7R)-spiro[2.5]octan-7-yl]ethyl]-2-methyl-pyrazole-3-carboxamide]",100 to 1000 nM
3,CCC(CC)[C@H](NC(=O)c1ccnn1C)C(=O)Nc1ccc(-c2c(C)n[nH]c2C)cc1 [Example 118],100 to 1000 nM
4,"CCn1nccc1C(=O)N[C@H](C(=O)Nc1ccc(-c2c(C)n[nH]c2C)cc1)C(C)C1CCC1 (single isomer, unassigned) [Example 192]",< 100 nM
5,"Cc1n[nH]c(C)c1-c1ccc(NC(=O)[C@@H](NC(=O)C2(F)CC2)C2CCCCC2)cc1 [Example 66, N-[(1S)-1-cyclohexyl-2-[4-(3,5-dimethyl-1H-pyrazol-4-yl)anilino]-2-oxo-ethyl]-1-fluoro-cyclopropanecarboxamide]",100 to 1000 nM
6,Cc1n[nH]c(C)c1-c1ccc(NC(=O)[C@H](CC(C)(C)C)NC(=O)c2ccnn2C)cc1 [Example 281],100 to 1000 nM
7,Cc1n[nH]c(C)c1-c1ccc(NC(=O)C(NC(=O)c2ccnn2C)[C@H]2CCCc3ccc(F)cc32)cc1 (stereo partly shown) [Example 261],< 100 nM
8,"Cc1n[nH]c(C)c1-c1ccc(NC(=O)C(NC(=O)c2ccnn2C)C2CCCc3cc(F)ccc32)cc1 (single isomer, unassigned) [Example 260]",< 100 nM
9,"Cc1n[nH]c(C)c1-c1ccc(NC(=O)[C@@H](NC(=O)c2ccnn2C)C2[C@H]3CCC[C@@H]23)cc1 (stereo partly drawn) [Example 267, N-[(1S)-1-[(1S,5R)-6-bicyclo[3.1.0]hexanyl]-2-[4-(3,5-dimethyl-1H-pyrazol-4-yl)anilino]-2-oxo-ethyl]-2-methyl-pyrazole-3-carboxamide]",> 1000 nM
10,"Cc1n[nH]c(C)c1-c1ccc(NC(=O)[C@@H](NC(=O)c2coc3ccccc23)C2CCCCC2)cc1 [Example 73, N-[(1S)-1-cyclohexyl-2-[4-(3,5-dimethyl-1H-pyrazol-4-yl)anilino]-2-oxo-ethyl]benzofuran-3-carboxamide]",100 to 1000 nM
11,"Cc1n[nH]c(C)c1-c1ccc(NC(=O)[C@H](Cc2ccccc2)NC(=O)c2ccnn2C)cc1 [Example 44, N-[(1S)-1-benzyl-2[4-(3,5-dimethyl-1H-pyrazol-4-yl)anilino]-2-oxo-ethyl]-2-methyl-pyrazole-3-carboxamide]",> 1000 nM
12,"Cc1ncn(C)c1-c1ccc(NC(=O)[C@@H](NC(=O)OC(C)(C)C)C2CCCCC2)cc1 [Example 83, tert-butyl N-[(1S)-1-cyclohexyl-2-[4-(3,5-dimethylimidazol-4-yl)anilino]-2-oxo-ethyl]carbamate]",100 to 1000 nM
13,"CCn1nccc1C(=O)N[C@H](C(=O)Nc1ccc(-c2c(C)n[nH]c2C)cc1)[C@@H]1CC2(CC2)CCC1(F)F [Example 180, N-[(1S)-1-[(7S)-6,6-difluorospiro[2.5]octan-7-yl]-2-[4-(3,5-dimethyl-1H-pyrazol-4-yl)anilino]-2-oxo-ethyl]-2-ethyl-pyrazole-3-carboxamide]",< 100 nM
14,"Cc1n[nH]c(C)c1-c1ccc(NC(=O)[C@@H](NC(=O)c2ccccc2)C(C2CC2)C2CC2)cc1 [Example 167, N-[(1S)-1-(dicyclopropylmethyl)-2-[4-(3,5-dimethyl-1H-pyrazol-4-yl)anilino]-2-oxo-ethyl]benzamide]",100 to 1000 nM
15,"Cc1n[nH]c(C)c1-c1ccc(NC(=O)C(NC(=O)c2ccnn2C)C(C2CC2)C2CC2)cc1 (stereo not shown) [Example 30, N-[1-(dicyclopropylmethyl)-2-[4-(3,5-dimethyl-1 pyrazol-4-yl)anilino]-2-oxo-ethyl]-2-methyl-pyrazole-3-carboxamide]",100 to 1000 nM
16,"CCc1nocc1C(=O)N[C@H](C(=O)Nc1ccc(-c2c(C)n[nH]c2C)cc1)C(C1CC1)C1CC1 [Example 290, N-[(1S)-1-(dicyclopropylmethyl)-2-[4-(3,5-dimethyl-1H-pyrazol-4-yl)anilino]-2-oxo-ethyl]-3-ethyl-isoxazole-4-carboxamide]",< 100 nM
17,"Cc1n[nH]c(C)c1-c1ccc(NC(=O)[C@@H](NC(=O)c2cnnn2-c2ccccc2)C2CCCCCC2)cc1 [Example 63, N-[(1S)-1-cycloheptyl-2-[4-(3,5-dimethyl-1H-pyrazol-4-yl)anilino]-2-oxo-ethyl]-3-phenyl-triazole-4-carboxamide]",< 100 nM
18,"Cn1cncc1-c1ccc(NC(=O)[C@@H](NC(=O)c2ccnn2C)C(C2CCCCC2)C2CCCC2)cc1 (single isomer, unassigned) [Example 339B]",100 to 1000 nM
19,"Cc1n[nH]c(C)c1-c1ccc(NC(=O)[C@@H](NC(=O)c2ccnn2C)C2C[C@@H](C)C[C@@H](C)C2)cc1 (single isomer, unassigned) [Example 268]",< 100 nM
20,"Cn1cnnc1-c1ccc(NC(=O)[C@@H](NC(=O)c2cnnn2-c2ccccc2)C2CCCCC2)cc1 [Example 348, N-[(1S)-1-cyclohexyl-2-[4-(4-methyl-1,2,4-triazol-3-yl)anilino]-2-oxo-ethyl]-3-phenyl-triazole-4-carboxamide]",> 1000 nM
21,Cc1n[nH]c(C)c1-c1ccc(NC(=O)[C@H](Cc2ccccc2Cl)NC(=O)c2ccnn2C(C)C)cc1 [Example 24],100 to 1000 nM
22,"Cc1n[nH]c(C)c1-c1ccc(NC(=O)[C@@H](NC(=O)c2ccnn2CCCO)[C@H]2CC[C@H](C)CC2)cc1 [Example 208, N-[(1S)-2-[4-(3,5-dimethyl-1H-pyrazol-4-yl)anilino]-1-(trans-4-methylcyclohexyl)-2-oxo-ethyl]-2-(3-hydroxypropyl)pyrazole-3-carboxamide]",< 100 nM
